Measurements as given in US20240327354A1, “GRAM-NEGATIVE BACTERIA EFFLUX PUMP INHIBITORS” (INSTITUT NATIONAL DE LA SANTÉ ET DE LA RECHERCHE MÉDICALE, priority 2021, published 2024).
Counter-ions that a name gives are not always drawn.

system: E. coli BW25113; assay: Assay 1: growth inhibition of E. coli by sub-inhibitory pyridomycin in combination with examples (resazurin reduction); format: cell-based, Escherichia coli; conditions: read-out: EC50 on E. coli with 8 μg/mL of pyridomycin, 8 μg/mL pyridomycin, 5 h, 37° C.
Description: Escherichia coli BW25113 (CGSC 7636) and its derivatives E. coli ΔtolC (JW5503-1, ΔtolC732::kan, CGSC 11430), E. coli ΔacrA (JW0452-3, ΔacrA748::kan, CGSC 11843) and E. coli ΔacrB (JW0451-2, ΔacrB747::kan, CGSC 8609) were obtained from E. coli Genetic Stock Center (CGSC, New Haven, Connecticut) and originated from the Keio Collection (Baba T et al, Mol Sys Biol, 2006). Klebsiella pneumoniae (LMG 2095/ATCC 13883) and K. pneumoniae (ATCC43816), Pseudomonas aeruginosa (PAO1), Acinetobacter baumannii (LMG 1025, ATCC 17978), were obtained from ATCC or BCCM/LMG Bacteria Collection. All bacteria were grown and tested in cation-adjusted Mueller-Hinton broth (CAMHB; BD Difco) at 37° C. For conservation, log phase bacteria were frozen (−80° C.) in CAMHB supplemented with 15% glycerol.
Briefly, E. coli BW25113 were diluted from frozen or growing stocks to an OD600 of 0.0004-0.001 in CAMHB. […] E. coli BW25113 viability was evaluated using the resazurin reduction assay, and measured by fluorescence (POLARstar Omega, BMG Labtech: Ex: 530 nm Em: 590 nm). EC50 were defined as the compound concentration that prevented 50% of resazurin turnover compared to the non-treated bacteria.

SMILES	EC50 [µM]
Clc1cc2ncccc2nc1N1CCNCC1 [Example 69, 3-chloro-2-piperazin-1-yl-1,5-naphthyridine; hydrochloride]	5 to 100
NCc1cc(Cl)cc(-c2ccc3nc(N4CCNCC4)c(Cl)cc3c2)c1 [Example 137, [3-chloro-5-(3-chloro-2-piperazin-1-yl-6-quinolyl)phenyl]methanamine;dihydrochloride]	< 5
CCOC(=O)c1cnc(N2CCNCC2)c(Cl)c1 [Example 32, ethyl 5-chloro-6-piperazin-1-yl-pyridine-3-carboxylate; hydrochloride]	5 to 100
NCC#Cc1cnc(N2CCNCC2)c(Cl)c1 [Example 85, 3-(5-chloro-6-piperazin-1-yl-3-pyridyl)prop-2-yn-1-amine; 2,2,2-trifluoroacetic acid]	5 to 100
C[C@H]1CN(c2nc3ccccc3nc2Cl)CCN1 [Example 50, 2-chloro-3-[(3S)-3-methylpiperazin-1-yl]quinoxaline;hydrochloride]	5 to 100
NCCc1ccc(NC(=O)c2cnc(N3CCNCC3)c(Cl)c2)cc1 [Example 34, N-[4-(2-aminoethyl)phenyl]-5-chloro-6-piperazin-1-yl-pyridine-3-carboxamide;dihydrochloride]	5 to 100
NCC1CCN(c2ccc3nc(N4CCNCC4)c(Cl)cc3c2)C1 (stereo not shown) [Example 100, [1-(3-chloro-2-piperazin-1-yl-6-quinolyl)pyrrolidin-3-yl]methanamine;dihydrochloride]	< 5
Clc1cc2cc(N[C@H]3CCCNC3)ccc2nc1N1CCNCC1 (stereo in doubt) [Example 104, 3-chloro-2-piperazin-1-yl-N-(3-piperidyl)quinolin-6-amine;dihydrochloride]	< 5
NCc1cccc(-c2ccc3nc(N4CCNCC4)c(Cl)cc3c2)c1Cl [Example 136, [2-chloro-3-(3-chloro-2-piperazin-1-yl-6-quinolyl)phenyl]methanamine;dihydrochloride]	< 5
NCC1CCCN(c2ccc3nc(N4CCNCC4)c(Cl)cc3c2)C1 (stereo not shown) [Example 68, [1-(3-chloro-2-piperazin-1-yl-6-quinolyl)-3-piperidyl]methanamine;dihydrochloride]	< 5
Clc1cc(Br)cnc1N1CCNCC1 [Example 19, 1-(5-bromo-3-chloro-2-pyridyl)piperazine;hydrochloride]	5 to 100
NCC1CCN(c2ccc3nc(N4CCNCC4)c(Cl)cc3c2)CC1 [Example 99, [1-(3-chloro-2-piperazin-1-yl-6-quinolyl)-4-piperidyl]methanamine;dihydrochloride]	< 5
Clc1nc2ccccc2cc1N1CCNCC1 [Example 40, 2-chloro-3-piperazin-1-yl-quinoline;hydrochloride]	5 to 100
Clc1cc(C#Cc2ccccc2)cnc1N1CCNCC1 [Example 89, 1-[3-chloro-5-(2-phenylethynyl)-2-pyridyl]piperazine; 2,2,2-trifluoroacetic acid]	5 to 100
NCc1nc(-c2cnc(N3CCNCC3)c(Cl)c2)no1 [Example 74, [3-(5-chloro-6-piperazin-1-yl-3-pyridyl)-1,2,4-oxadiazol-5-yl]methanamine;dihydrochloride]	5 to 100
NCCc1ccc(C(=O)Nc2cnc(N3CCNCC3)c(Cl)c2)cc1 [Example 71, 4-(2-aminoethyl)-N-(5-chloro-6-piperazin-1-yl-3-pyridyl)benzamide;dihydrochloride]	5 to 100
NCCc1ccc(OC(=O)c2cnc(N3CCNCC3)c(Cl)c2)cc1 [Example 28, [4-(2-aminoethyl)phenyl] 5-chloro-6-piperazin-1-yl-pyridine-3-carboxylate;dihydrochloride]	< 5

SMILES	EC50 [µM]
Cc1nnc(-c2cnc(N3CCNCC3)c(Cl)c2)o1 [Example 72, 2-(5-chloro-6-piperazin-1-yl-3-pyridyl)-5-methyl-1,3,4-oxadiazole]	5 to 100
NCCCn1cc(-c2ccc3nc(N4CCNCC4)c(Cl)cc3c2)nn1 [Example 93, 3-[4-(3-chloro-2-piperazin-1-yl-6-quinolyl)triazol-1-yl]propan-1-amine;dihydrochloride]	< 5
NCCCC#Cc1cnc(N2CCNCC2)c(Cl)c1 [Example 87, 5-(5-chloro-6-piperazin-1-yl-3-pyridyl)pent-4-yn-1-amine; 2,2,2-trifluoroacetic acid]	< 5
O=C1NCCN1c1ccc2nc(N3CCNCC3)c(Cl)cc2c1 [Example 96, 1-(3-chloro-2-piperazin-1-yl-6-quinolyl)imidazolidin-2-one;hydrochloride]	< 5
NCCc1cccc(-c2ccc3nc(N4CCNCC4)c(Cl)cc3c2)c1 [Example 115, 2-[3-(3-chloro-2-piperazin-1-yl-6-quinolyl)phenyl]ethanamine;dihydrochloride]	< 5
COC(=O)c1cnc(N2CCN(C)CC2)c(Cl)c1 [Example 3, methyl 5-chloro-6-(4-methylpiperazin-1-yl)pyridine-3-carboxylate]	5 to 100
CN1CCN(c2ccc(C(F)(F)F)cc2Cl)CC1 [Example 5, 1-[2-chloro-4-(trifluoromethyl)phenyl]-4-methyl-piperazine]	100 to 500
NCc1cncc(-c2ccc3nc(N4CCNCC4)c(Cl)cc3c2)c1 [Example 132, [5-(3-chloro-2-piperazin-1-yl-6-quinolyl)-3-pyridyl]methanamine;dihydrochloride]	< 5
NCc1ccnc(-c2ccc3nc(N4CCNCC4)c(Cl)cc3c2)c1 [Example 131, [2-(3-chloro-2-piperazin-1-yl-6-quinolyl)-4-pyridyl]methanamine;dihydrochloride]	< 5
NCCc1ccc(C#Cc2cnc(N3CCNCC3)c(Cl)c2)cc1 [Example 92, 2-[4-[2-(5-chloro-6-piperazin-1-yl-3-pyridyl)ethynyl]phenyl]ethanamine; 2,2,2-trifluoroacetic acid]	< 5
Cc1cnc(N2CCNCC2)c(Cl)c1 [Example 12, 1-(3-chloro-5-methyl-2-pyridyl)piperazine; hydrochloride]	5 to 100
Cc1cc2nc(Cl)c(N3CCNCC3)nc2cc1C [Example 47, 2-chloro-6,7-dimethyl-3-piperazin-1-yl-quinoxaline;hydrochloride]	< 5
C[C@@H](N)c1cccc(-c2ccc3nc(N4CCNCC4)c(Cl)cc3c2)c1 [Example 113, (1R)-1-[3-(3-chloro-2-piperazin-1-yl-6-quinolyl)phenyl]ethanamine;dihydrochloride]	< 5
CC(=O)Nc1cnc(N2CCN(C)CC2)c(Cl)c1 [Example 80, N-[5-chloro-6-(4-methylpiperazin-1-yl)-3-pyridyl]acetamide]	5 to 100
NCCCNc1ccc2nc(N3CCNCC3)c(Cl)cc2c1 [Example 63, N′-(3-chloro-2-piperazin-1-yl-6-quinolyl)propane-1,3-diamine; dihydrochloride]	< 5
Clc1cc2cc(N3CCNCC3)ccc2nc1N1CCNCC1 [Example 56, 3-chloro-2,6-di(piperazin-1 yl)quinoline;dihydrochloride]	< 5
CN1CCN(c2ncc(C(F)(F)F)cc2Cl)CC1 [Example 1, 1-[3-chloro-5-(trifluoromethyl)-2-pyridyl]-4-methyl-piperazine]	100 to 500
